Patent US7781445B2, “Synthesis of indenoisoquinoliniums and methods of use” (Purdue Research Foundation, priority 2005, dated 2010)
Read-outs that look alike come from different tables or passages of the source.

Tests used:
SN12C = test: COMPARE screening (NCI), GI50 in SN12C
Description: (§1) This in vitro prescreening system is based on the measurement of anticancer cytotoxicity against human cancer cell line panels consisting of approximately 60 cell lines of major human cancers (including leukemia, and slower growing tumor cells such as lung, colon, breast, skin, kidney, etc.) and is referred hereinafter as “COMPARE” screening.
(§2) COMPARE screening. The compounds described herein were examined for antiproliferative activity against the human cancer cell lines in the National Cancer Institute screen (COMPARE screening), in which the activity of each compound was evaluated with approximately 55 different cancer cell lines of diverse tumor origins. […] Therefore, the MGM value represents an overall assessment of toxicity of the compound across numerous cell lines.

UACC-62 = test: COMPARE screening (NCI), GI50 in UACC-62
Description: as §1, §2

OVCAR-3 = test: COMPARE screening (NCI), GI50 in OVCAR-3
Description: as §1, §2

MDA-MB-435 = test: COMPARE screening (NCI), GI50 in MDA-MB-435
Description: as §1, §2

[1] = test system: all human cancer cell lines successfully tested (approximately 55); test: COMPARE screening, mean graph midpoint (MGM); assay type: cell-based; conditions: average GI50 over all cell lines tested, values outside 10^-8 to 10^-4 molar taken as the limits, read-out: MGM (mean graph midpoint for growth inhibition); for MGM (mean GI50 across cell lines): Homo sapiens
Description: as §1, §2

topoisomerase I = target: T1, topoisomerase I (Homo sapiens, UniProt P11387); test: Topoisomerase I-mediated DNA cleavage, 3'-end-labeled 161 bp pBluescript SK(-) fragment; assay type: biochemical; conditions: for Top 1 Cleavage: tested at concentrations ranging up to 10 μM, semi-quantitative relative to compound A; for top1-mediated DNA cleavage band at site 37 / top1-mediated DNA cleavage band at site 44: FIG. 1; for top1-mediated DNA cleavage band at site 37: cleavage site 37; for top1-mediated DNA cleavage band at site 44: cleavage site 44
T1 sequence (P11387 1-765): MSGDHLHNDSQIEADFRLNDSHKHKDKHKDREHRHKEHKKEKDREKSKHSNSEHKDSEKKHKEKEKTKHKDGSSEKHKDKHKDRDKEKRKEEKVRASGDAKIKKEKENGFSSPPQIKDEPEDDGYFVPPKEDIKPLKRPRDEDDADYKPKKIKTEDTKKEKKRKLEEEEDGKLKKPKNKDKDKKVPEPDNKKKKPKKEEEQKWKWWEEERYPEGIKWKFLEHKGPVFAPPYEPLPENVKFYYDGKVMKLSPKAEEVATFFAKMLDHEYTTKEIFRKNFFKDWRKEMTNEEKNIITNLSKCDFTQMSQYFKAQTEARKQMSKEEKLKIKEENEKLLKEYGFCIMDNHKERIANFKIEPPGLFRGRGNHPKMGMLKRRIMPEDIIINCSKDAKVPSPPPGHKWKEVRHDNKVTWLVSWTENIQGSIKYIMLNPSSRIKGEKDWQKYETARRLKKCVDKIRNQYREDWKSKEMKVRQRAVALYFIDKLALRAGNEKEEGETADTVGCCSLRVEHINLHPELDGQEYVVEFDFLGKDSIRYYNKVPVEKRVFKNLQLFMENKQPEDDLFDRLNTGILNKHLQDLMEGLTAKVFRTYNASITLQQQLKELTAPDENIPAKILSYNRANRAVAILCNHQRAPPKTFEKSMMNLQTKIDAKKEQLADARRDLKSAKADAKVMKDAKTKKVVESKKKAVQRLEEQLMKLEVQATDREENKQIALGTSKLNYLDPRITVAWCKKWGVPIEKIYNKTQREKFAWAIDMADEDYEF
Description: The assays were carried out at room temperature for 30 min and stopped by adding 0.5% SDS. […] Topoisomerase I was present in all reaction mixtures except for the one corresponding to the first lane.
Induction of DNA cleavage.
Labeling reactions were followed by phenol-chloroform extraction and ethanol precipitation. […] Reactions were terminated by adding 0.5% SDS.
DNA Cleavage Semiquantitative Analysis. […] The rubberband baseline correction was applied with band detection sensitivity set at 90.

HCT-116 = test: COMPARE screening (NCI), GI50 in HCT-116
Description: as §1, §2

DU-145 = test: COMPARE screening (NCI), GI50 in DU-145
Description: as §1, §2

HOP-62 = test: COMPARE screening (NCI), GI50 in HOP-62
Description: as §1, §2

SF-539 = test: COMPARE screening (NCI), GI50 in SF-539; conditions: Homo sapiens, read-out: Cytotoxicity GI50, CNS SF-539
Description: as §1, §2

[2] = Homo sapiens, SN12C, read-out: Cytotoxicity GI50, renal SN12C, renal, SN12C, concentration corresponding to 50% growth inhibition
[3] = Homo sapiens, UACC-62, read-out: Cytotoxicity GI50, melanoma UACC-62, melanoma, UACC-62, concentration corresponding to 50% growth inhibition
[4] = Homo sapiens, OVCAR-3, read-out: Cytotoxicity GI50, ovarian OVCAR-3, ovarian, OVCAR-3, concentration corresponding to 50% growth inhibition
[5] = Homo sapiens, MDA-MB-435, read-out: Cytotoxicity GI50, breast MDA-MB-435, breast, MDA-MB-435, concentration corresponding to 50% growth inhibition
[6] = Homo sapiens, HCT-116, read-out: Cytotoxicity GI50, colon HCT-116, colon, HCT-116, concentration corresponding to 50% growth inhibition
[7] = Homo sapiens, DU-145, read-out: Cytotoxicity GI50, prostate DU-145, prostate, DU-145, concentration corresponding to 50% growth inhibition
[8] = Homo sapiens, HOP-62, read-out: Cytotoxicity GI50, lung HOP-62, lung, HOP-62, concentration corresponding to 50% growth inhibition

MGM (mean GI50 across cell lines) [1] | Top 1 Cleavage (topoisomerase I; Table 1) | SMILES | GI50 (SN12C; [2]) | GI50 (UACC-62; [3]) | GI50 (OVCAR-3; [4]) | GI50 (MDA-MB-435; [5]) | GI50 (HCT-116; [6]) | GI50 (DU-145; [7]) | GI50 (HOP-62; [8]) | GI50 (SF-539) | other results
24.5 µM |  | COc1ccc(OC)c2c3c(ncc12)-c1cc2c(cc1C3)OCO2.Cl [Compound 9db, 1,4-Dimethoxy-8,9-methylenedioxy-11H-indeno[1,2-c]isoquinoline Hydrochloride] | > 100 µM | > 100 µM | 26.9 µM | > 100 µM | 0.249 µM | 48.4 µM | < 0.01 µM |  | Top 1 Cleavage (topoisomerase I; Table 2): ++ (++, similar activity as compound A)
18.6 µM |  | COc1ccc2c(c1OC)-c1ncc3c(OC)ccc(OC)c3c1C2.Cl [Compound 9da, 1,4,7,8-Tetramethoxy-11H-indeno[1,2-c]isoquinoline Hydrochloride] | 14.8 µM | 18 µM | 15.4 µM | 23.4 µM | 17.8 µM | 28.1 µM | 21.4 µM | 14 µM | Top 1 Cleavage (topoisomerase I; Table 2): 0 (0, no activity)
 |  | COc1cc2c(c(OC)c1OC)-c1ncc3cc(OC)c(OC)c(OC)c3c1C2.Cl [Compound 9ec, 1,2,3,7,8,9-Hexamethoxy-11H-indeno[1,2-c]isoquinoline Hydrochloride] |  |  |  |  |  |  |  |  | GI50 (SN12C; human): 20.3 µM; GI50 (UACC-62; human): 21.1 µM; GI50 (OVCAR-3; human): 21.5 µM; GI50 (MDA-MB-435; human): 23 µM; IC50 ([1]; Hydrochloride): 26.3 µM; Top 1 Cleavage (topoisomerase I; Table 2, Hydrochloride): ++ (++, similar activity as compound A); GI50 (HCT-116; human): 27.8 µM; GI50 (DU-145; human): 29.6 µM; GI50 (HOP-62; human): 28.5 µM
26.3 µM |  | COc1cc2cnc3c(c2c(OC)c1OC)Cc1ccc2c(c1-3)OCO2.Cl [Compound 9eb, 1,2,3-Trimethoxy-7,8-methylenedioxy-11H-indeno[1,2-c]isoquinoline Hydrochloride] |  | 22.4 µM |  | > 100 µM | 22.1 µM | 26.9 µM |  |  | Top 1 Cleavage (topoisomerase I; Table 2): ++ (++, similar activity as compound A)
 |  | CC[C@@]1(O)C(=O)OCc2c1cc1n(c2=O)Cc2cc3ccccc3nc2-1 [B, camptothecin, reference compound] | 0.02 µM | 0.01 µM |  | 0.04 µM | 0.03 µM | 0.01 µM | 0.01 µM | 0.01 µM | 
24 µM |  | COc1cc2c(c(OC)c1OC)-c1ncc3cc(OC)c(OC)c(OC)c3c1C2.Cl [Compound 9cc, 1,2,3,7,8,9-Hexamethoxy-11H-indeno[1,2-c]isoquinoline Hydrochloride] | 17.6 µM | 17.4 µM | 19.1 µM | 20.8 µM | 33.5 µM | 26.6 µM | 35.4 µM |  | Top 1 Cleavage (topoisomerase I; Table 2, Hydrochloride): 0 (0, no activity)
 |  | COc1cc2c3c(n(CCCNCCO)c(=O)c2cc1OC)-c1cc2c(cc1C3=O)OCO2 [C, reference compound] |  |  |  |  |  |  |  |  | top1-mediated DNA cleavage band at site 37 (topoisomerase I): not seen; top1-mediated DNA cleavage band at site 44 (topoisomerase I): observed
 |  | COc1cc2c3c(n(C)c(=O)c2cc1OC)-c1cc2c(cc1C3=O)OCO2 [A, reference compound] |  |  |  |  |  |  |  |  | GI50 (MDA-MB-435): 96 µM; IC50 [1]: 20 µM
0.272 µM | ++ (++, similar activity as compound A) | Cl.c1c2c(cc3c1OCO3)-c1ncc3cc4c(cc3c1C2)OCO4 [Compound 9bb, 2,3-Methylenedioxy-8,9-methylenedioxy-11H-indeno[1,2-c]isoquinoline Hydrochloride] | 0.0414 µM | 0.19 µM | 0.0232 µM | < 0.01 µM | 0.283 µM |  | 0.227 µM | 0.598 µM | 
20.9 µM | 0 (0, no activity) | COc1cc2c(c(OC)c1OC)-c1ncc3cc4c(cc3c1C2)OCO4.Cl [Compound 9bc, 7,8,9-Trimethoxy-2,3-methylenedioxy-11H-indeno[1,2-c]isoquinoline Hydrochloride] | 13.4 µM | 19.3 µM | 15.5 µM | 13.2 µM | 18.8 µM | 23.2 µM | 21.7 µM |  | 
 |  | COc1cc2c[n+](CCCN)c3c(c2cc1OC)C(=O)c1cc2c(cc1-3)OCO2 [Compound 7ab, 6-(3-Amino-1-propyl)-2,3-dimethoxy-8,9-(methylenedioxy)-1′-oxo-indeno[1,2-c]isoquinolinium Chloride] |  |  |  |  |  |  |  |  | IC50 [1]: 0.167 µM
13.2 µM |  | COc1ccc2c(c1OC)-c1ncc3cc(OC)c(OC)c(OC)c3c1C2.Cl [Compound 9ea, 1,2,3,7,8-Pentamethoxy-11H-indeno[1,2-c]isoquinoline Hydrochloride] |  | 3.84 µM | 0.529 µM |  | 8.81 µM |  | 16 µM |  | Top 1 Cleavage (topoisomerase I; Table 2): ++ (++, similar activity as compound A)
44.7 µM | ++ (++, similar activity as compound A) | COc1cc2c(cc1OC)-c1ncc3cc(OC)c(OC)cc3c1C2.Cl [Compound 9aa, 2,3,8,9-Tetramethoxy-11H-indeno[1,2-c]isoquinoline Hydrochloride] | > 50 µM | > 50 µM | > 50 µM | > 50 µM | > 50 µM | > 50 µM |  | > 50 µM | top1-mediated DNA cleavage band at site 37 (topoisomerase I): not seen; top1-mediated DNA cleavage band at site 44 (topoisomerase I): observed

SMILES | MGM (mean GI50 across cell lines) [1] | Top 1 Cleavage (topoisomerase I; Table 1) | GI50 (SN12C; [2]) | GI50 (UACC-62; [3]) | GI50 (OVCAR-3; [4]) | GI50 (MDA-MB-435; [5]) | GI50 (HCT-116; [6]) | GI50 (DU-145; [7]) | GI50 (HOP-62; [8]) | GI50 (SF-539) | other results
COc1cc2c(cc1OC)-c1ncc3cc4c(cc3c1C2)OCO4.Cl [Compound 9ba, 8,9-Dimethoxy-2,3-methylenedioxy-11H-indeno [1,2-c]isoquinoline hydrochloride] | 33.9 µM | +++ (+++ and ++++, greater activity than compound A) | > 100 µM | > 100 µM | 61.2 µM | 63.4 µM | 11.1 µM | 25.3 µM |  | 23.4 µM | top1-mediated DNA cleavage band at site 37 (topoisomerase I): not seen; top1-mediated DNA cleavage band at site 44 (topoisomerase I): observed
COC1=C(OC)Cc2c3c(ncc2=C1)=c1cc2c(cc1=C3)OCO2.Cl [Compound 9ab, 2,3-Dimethoxy-8,9-methylenedioxy-1H-indeno[1,2-c]isoquinoline Hydrochloride] | 0.0505 µM | +++ (+++ and ++++, greater activity than compound A) | > 100 µM | < 0.01 µM |  | < 0.01 µM | > 100 µM | 0.0281 µM | 0.0721 µM | < 0.01 µM | top1-mediated DNA cleavage band at site 37 (topoisomerase I): not seen; top1-mediated DNA cleavage band at site 44 (topoisomerase I): observed
